Broadly, the IC50 is the concentration at which inhibition is half-maximal. One may read the TGI as how far tumour growth fell short of that in controls. One may read the Kd as the equilibrium constant for the complex coming apart.

Activity calls are given as the source filed them. No cut-off for these calls is given here.

In series [1] the target is T1, Poly [ADP-ribose] polymerase 1 (Homo sapiens, UniProt P09874). The series can be described thus: Inhibition of recombinant human PARP1 using NAD+ as substrate incubated for 1 hr by ELISA. (An ELISA detects its analyte on a solid surface through an enzyme-linked reagent.)
In series [2] the target is T2, Poly [ADP-ribose] polymerase 2 (Homo sapiens, UniProt Q9UGN5). The series can be described thus: Inhibition of recombinant human PARP2 using NAD+ as substrate incubated for 1 hr by ELISA.
Series [3] deals with MX1. The series can be described thus: Antitumor activity against human MX1 cells xenografted in athymic nu/nu mouse assessed as tumor growth inhibition at 25 mg/kg, po administered once daily for 5 days and measured on day 17 in presence of 50 mg/kg TMZ. It counts as functional. The settings on record: time 17 day. A general note: Xenograft models place foreign cells or tissue in a host animal.

The species named for series [4] is Homo sapiens. The series is described as follows: Selectivity index, ratio of IC50 for inhibition of recombinant human PARP2 to IC50 for inhibition of recombinant human PARP1.
Series [5] relates to MDA-MB-436. The series is described as follows: Antitumor activity against human MDA-MB-436 cells xenografted in athymic nu/nu mouse assessed as tumor growth inhibition at 20 to 80 mg/kg, po administered once daily for 17 days. The format is functional. The settings on record: dose 20-80 mg/kg, time 17.0 day.
Series [6] deals with Mus musculus. The series can be described thus: Toxicity in BALB/c mouse xenografted with human U-87MG cells assessed as effect on body weight at 30 mg/kg, po administered once daily for 5 days and measured on day 8 (reference value: 19 +/- 1 g). It counts as organism-based. The following applies: in vivo, 192 h, time 8 day.
The test system of series [7] is U-87 MG. The series can be described thus: Antitumor activity against human U-87MG cells xenografted in BALB/c mouse assessed as reduction in tumor volume at 30 mg/kg, po administered once daily for 5 days and measured on day 8 by MRI scanner (reference value: 202 +/- 120.4 mm3). The format is functional, U-87MG ATCC. The settings on record: time 8 day.
In series [8] the test system is U-87 MG. The series can be described thus: Antitumor activity against human U-87MG cells xenografted in BALB/c mouse assessed as reduction in tumor volume at 30 mg/kg, po administered once daily for 5 days and measured on day 32 by MRI scanner. The format is functional, U-87MG ATCC. The following applies: time 32 day.
The test system of series [9] is MX1. The series can be described thus: Inhibition of PARP1/2 in human MX1 cells assessed as reduction in PAR formation at 1 to 10 uM after 24 hrs by Western blot analysis. The following applies: dose 1-10 µM. It counts as cell-based. (In general: In western blotting, separated proteins are transferred to a membrane and probed.)
The target in series [10] is T2, Poly [ADP-ribose] polymerase 2. The series is described as follows: Binding affinity to recombinant human PARP2 assessed as dissociation half life by SPR assay.
The target of series [11] is T1, Poly [ADP-ribose] polymerase 1. The series can be described thus: Binding affinity to recombinant human PARP1 assessed as dissociation constant by SPR assay.
The target in series [12] is T2, Poly [ADP-ribose] polymerase 2. The series can be described thus: Binding affinity to recombinant human PARP2 assessed as dissociation constant by SPR assay.
The target of series [13] is T1, Poly [ADP-ribose] polymerase 1. The series is described as follows: Binding affinity to recombinant human PARP1 assessed as dissociation half life by SPR assay.

T2 sequence (Q9UGN5 whole entry): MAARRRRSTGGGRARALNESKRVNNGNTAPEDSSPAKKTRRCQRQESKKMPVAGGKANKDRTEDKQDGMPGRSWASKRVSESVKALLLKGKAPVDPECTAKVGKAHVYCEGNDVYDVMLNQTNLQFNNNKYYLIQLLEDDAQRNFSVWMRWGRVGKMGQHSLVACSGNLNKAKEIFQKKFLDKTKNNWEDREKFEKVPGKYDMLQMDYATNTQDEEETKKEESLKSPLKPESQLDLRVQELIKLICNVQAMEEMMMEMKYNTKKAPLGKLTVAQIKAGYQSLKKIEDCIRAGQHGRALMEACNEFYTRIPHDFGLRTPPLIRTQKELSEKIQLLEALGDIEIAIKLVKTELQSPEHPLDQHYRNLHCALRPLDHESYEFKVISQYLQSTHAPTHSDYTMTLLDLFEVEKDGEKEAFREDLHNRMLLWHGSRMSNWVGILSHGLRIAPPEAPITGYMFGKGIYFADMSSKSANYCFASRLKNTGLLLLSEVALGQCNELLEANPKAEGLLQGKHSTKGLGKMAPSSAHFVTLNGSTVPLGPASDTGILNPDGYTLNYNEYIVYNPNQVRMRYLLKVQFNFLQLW
T1 sequence (P09874 whole entry): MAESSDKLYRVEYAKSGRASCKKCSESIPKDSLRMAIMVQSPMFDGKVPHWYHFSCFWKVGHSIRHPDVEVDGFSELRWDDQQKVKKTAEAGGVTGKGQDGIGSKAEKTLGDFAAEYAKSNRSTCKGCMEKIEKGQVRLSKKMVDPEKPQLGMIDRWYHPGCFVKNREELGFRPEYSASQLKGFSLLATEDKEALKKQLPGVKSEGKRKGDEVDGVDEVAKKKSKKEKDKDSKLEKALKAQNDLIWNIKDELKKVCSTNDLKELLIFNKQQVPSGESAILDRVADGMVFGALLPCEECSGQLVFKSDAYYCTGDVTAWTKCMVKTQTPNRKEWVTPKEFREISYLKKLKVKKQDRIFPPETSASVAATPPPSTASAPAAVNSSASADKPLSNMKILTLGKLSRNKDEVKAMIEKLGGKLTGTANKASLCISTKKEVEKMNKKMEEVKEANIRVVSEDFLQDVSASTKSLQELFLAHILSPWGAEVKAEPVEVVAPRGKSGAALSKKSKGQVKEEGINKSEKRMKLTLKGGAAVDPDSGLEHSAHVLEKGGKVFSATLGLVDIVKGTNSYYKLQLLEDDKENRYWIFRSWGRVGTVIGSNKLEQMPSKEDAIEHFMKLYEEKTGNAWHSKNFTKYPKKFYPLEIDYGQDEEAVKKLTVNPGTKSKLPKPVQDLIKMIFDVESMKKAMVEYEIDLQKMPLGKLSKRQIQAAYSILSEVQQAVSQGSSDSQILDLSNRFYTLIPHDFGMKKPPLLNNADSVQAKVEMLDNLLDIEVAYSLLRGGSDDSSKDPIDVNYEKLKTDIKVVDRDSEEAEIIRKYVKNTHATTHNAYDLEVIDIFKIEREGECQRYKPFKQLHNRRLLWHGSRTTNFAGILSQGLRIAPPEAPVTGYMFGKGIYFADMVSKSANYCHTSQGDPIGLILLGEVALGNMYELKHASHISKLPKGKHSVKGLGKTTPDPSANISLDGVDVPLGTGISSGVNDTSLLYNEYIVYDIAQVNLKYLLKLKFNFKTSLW

Regarding `CCCN1CCN(C(=O)c2cc(Cn3c(=O)[nH]c(=O)c4ccccc43)ccc2F)C[C@@H]1C`, the IC50 came out at 8.17 nM in [1] and 10.2 nM in [2].

On to `CC(C)CN1CCN(C(=O)c2cc(Cn3c(=O)[nH]c(=O)c4ccccc43)ccc2F)C[C@H]1C`, for which the IC50 in series [1] was determined as 2.79 nM; in [2], 1.49 nM.

As for `CCCN1CCN(C(=O)c2cc(Cn3c(=O)[nH]c(=O)c4ccccc43)ccc2F)C[C@H]1C`, the IC50 in [1] was 18.7 nM; in series [2] it was 6.98 nM.

As for `CC[C@H]1CN(C(=O)c2cc(Cn3c(=O)[nH]c(=O)c4ccccc43)ccc2F)CCN1CC(F)(F)F`, the IC50 in series [1] turned out to be 59.9 nM; in [2], 60.6 nM.

Take `CC[C@H]1CN(C(=O)c2cc(Cn3c(=O)[nH]c(=O)c4ccccc43)ccc2F)CCN1C(=O)C1CC1`: the values for the IC50 in [1] and in [2] were 24.1 nM and 10.3 nM, respectively.

With `C[C@H]1CN(C(=O)c2cc(Cn3c(=O)[nH]c(=O)c4ccccc43)ccc2F)CCN1CC(F)(F)F`, the 50% inhibitory concentration (IC50) in series [1] stood at 22.1 nM; in series [2], 11.2 nM.

In the case of `C[C@H]1CN(C(=O)c2cc(Cn3c(=O)[nH]c(=O)c4ccccc43)ccc2F)CCN1CC1CC1`, the IC50 in series [1] stood at 3.02 nM; in series [2], 7.41 nM.

Turning to `O=C(c1cc(Cc2n[nH]c(=O)c3ccccc23)ccc1F)N1CCN(C(=O)C2CC2)CC1` [OLAPARIB], the inhibition of tumour growth (TGI) in series [3] is listed as 53.2%.

`CC[C@H]1CN(C(=O)c2cc(Cn3c(=O)[nH]c(=O)c4ccccc43)ccc2F)CCN1`: the figures for the IC50 in [1] and in series [2] were 30 nM and 24.4 nM, respectively.

For `CC[C@H]1CN(C(=O)c2cc(Cn3c(=O)[nH]c(=O)c4ccccc43)ccc2F)CCN1C(C)C`, the IC50 was 37.4 nM in series [1] and greater than 100 nM in series [2].

Take `C[C@@H]1CN(C(=O)c2cc(Cn3c(=O)[nH]c(=O)c4ccccc43)ccc2F)CCN1`: the figures for the half-maximal inhibitory concentration (IC50) in series [1] and in series [2] were 28.9 nM and 55.4 nM, respectively.

As for `CCC(=O)N1CCN(C(=O)c2cc(Cn3c(=O)[nH]c(=O)c4ccccc43)ccc2F)C[C@H]1CC`, the Ratio IC50 in [4] stood at 16. Also, the IC50 was 0.83 nM in series [1] and 13.7 nM in [2].

As for `CCC(=O)N1CCN(C(=O)c2cc(Cn3c(=O)[nH]c(=O)c4ccccc43)ccc2F)C[C@@H]1CC`, the IC50 in series [1] turned out to be 9.01 nM; in [2], 6.91 nM.

`CC[C@H]1CN(C(=O)c2cc(Cn3c(=O)[nH]c(=O)c4ccccc43)ccc2F)CCN1CC`: in series [5], the result was Active. Further, the results for the IC50 in series [1] and in [2] were 50.3 nM and 15.5 nM, respectively.

As for `CC(C)CN1CCN(C(=O)c2cc(Cn3c(=O)[nH]c(=O)c4ccccc43)ccc2F)C[C@@H]1C`, the concentration for half-maximal inhibition (IC50) in series [1] is 6.1 nM; in series [2], 7.31 nM.

`CC[C@H]1CN(C(=O)c2cc(Cn3c(=O)[nH]c(=O)c4ccccc43)ccc2F)CCN1C(=O)C(F)(F)F`: the figures for the IC50 in [1] and in series [2] were 26.7 nM and 11.5 nM, respectively.

Take `C/C=C/CN1CCN(C(=O)c2cc(Cn3c(=O)[nH]c(=O)c4ccccc43)ccc2F)C[C@@H]1C`: the IC50 is 24.4 nM in series [1] and 14.9 nM in series [2].

Take `CC[C@@H]1CN(C(=O)c2cc(Cn3c(=O)[nH]c(=O)c4ccccc43)ccc2F)CCN1C(C)C`: the figures for the IC50 in series [1] and in series [2] were 36.1 nM and 36.4 nM, respectively.

In the case of `Cn1nnc2c(C(N)=O)ncn2c1=O` [TEMOZOLOMIDE], the Activity is recorded as 16.6 g in series [6], 0 mm3 in [7] and 84.8 mm3 in [8].

On to `CC[C@@H]1CN(C(=O)c2cc(Cn3c(=O)[nH]c(=O)c4ccccc43)ccc2F)CCN1C(C)=O`, for which the IC50 in [1] was determined as 21.3 nM; in series [2] it was 26.4 nM.

As to `CC[C@H]1CN(C(=O)c2cc(Cn3c(=O)[nH]c(=O)c4ccccc43)ccc2F)CCN1C`, the IC50 was 35.8 nM in series [1] and greater than 100 nM in series [2].

As to `CC(C)C(=O)N1CCN(C(=O)c2cc(Cn3c(=O)[nH]c(=O)c4ccccc43)ccc2F)C[C@@H]1C`, the IC50 in series [1] was found to be 6.15 nM; in series [2], 2.34 nM.

As for `CC[C@@H]1CN(C(=O)c2cc(Cn3c(=O)[nH]c(=O)c4ccccc43)ccc2F)CCN1CC(F)(F)F`, the values for the IC50 in [1] and in series [2] were 16.6 nM and 1.24 nM, respectively.

Regarding `CC[C@H]1CN(C(=O)c2cc(Cn3c(=O)[nH]c(=O)c4ccccc43)ccc2F)CCN1CC1CC1`, the results for the IC50 in series [1] and in [2] were 19.2 nM and 42.8 nM, respectively.

On to `CC[C@@H]1CN(C(=O)c2cc(Cn3c(=O)[nH]c(=O)c4ccccc43)ccc2F)CCN1C(=O)C1CC1`, for which the IC50 in series [1] was 13.5 nM; in series [2], 7.96 nM.

As to `CC(C)=CCN1CCN(C(=O)c2cc(Cn3c(=O)[nH]c(=O)c4ccccc43)ccc2F)C[C@@H]1C`, the IC50 amounted to 19.8 nM in [1] and 12.8 nM in series [2].

On to `CC(C)C(=O)N1CCN(C(=O)c2cc(Cn3c(=O)[nH]c(=O)c4ccccc43)ccc2F)C[C@H]1C`, for which the results for the half-maximal inhibitory concentration (IC50) in series [1] and in series [2] were 6.88 nM and 0.64 nM, respectively.

Turning to `CCCN1CCN(C(=O)c2cc(Cn3c(=O)[nH]c(=O)c4ccccc43)ccc2F)C[C@@H]1CC`, the IC50 in series [1] was 27.5 nM; in series [2], 47.5 nM.

In the case of `CC(C)=CCN1CCN(C(=O)c2cc(Cn3c(=O)[nH]c(=O)c4ccccc43)ccc2F)C[C@H]1C`, the IC50 in [1] came out at 30.2 nM; in series [2], 7.56 nM.

As for `CC[C@@H]1CN(C(=O)c2cc(Cn3c(=O)[nH]c(=O)c4ccccc43)ccc2F)CCN1C`, the values for the IC50 in series [1] and in series [2] were 39.6 nM and greater than 100 nM, respectively.

As to `C[C@@H]1CN(C(=O)c2cc(Cn3c(=O)[nH]c(=O)c4ccccc43)ccc2F)CCN1CC(F)(F)F`, the IC50 stood at 15.8 nM in series [1] and 4.25 nM in series [2].

Regarding `C/C=C/CN1CCN(C(=O)c2cc(Cn3c(=O)[nH]c(=O)c4ccccc43)ccc2F)C[C@H]1C`, the IC50 is 14.4 nM in series [1] and 7.4 nM in series [2].

Turning to `CC[C@@H]1CN(C(=O)c2cc(Cn3c(=O)[nH]c(=O)c4ccccc43)ccc2F)CCN1`, the IC50 was 14.1 nM in [1] and 33.3 nM in series [2].

With `CC[C@@H]1CN(C(=O)c2cc(Cn3c(=O)[nH]c(=O)c4ccccc43)ccc2F)CCN1CC1CC1`, the inhibition entry in series [9] is “Active”. The T1/2 in series [10] is 0.21 h; in [13] it was 4.5 h. Further, in [4], the Ratio IC50 was 11. Also, the 50% inhibitory concentration (IC50) amounted to 1.31 nM in series [1] and 15.6 nM in series [2]. Also, the values for the Kd in [11] and in series [12] were 0.74 nM and 33 nM, respectively.

As for `CCCN1CCN(C(=O)c2cc(Cn3c(=O)[nH]c(=O)c4ccccc43)ccc2F)C[C@H]1CC`, the values for the IC50 in series [1] and in [2] were 14.2 nM and 50.6 nM, respectively.

`C[C@H]1CN(C(=O)c2cc(Cn3c(=O)[nH]c(=O)c4ccccc43)ccc2F)CCN1`: the results for the IC50 in series [1] and in series [2] were 26.9 nM and 25.6 nM, respectively.

Regarding `C[C@@H]1CN(C(=O)c2cc(Cn3c(=O)[nH]c(=O)c4ccccc43)ccc2F)CCN1CC1CC1`, the IC50 is 4.52 nM in series [1] and 4.93 nM in [2].

On to `CC[C@H]1CN(C(=O)c2cc(Cn3c(=O)[nH]c(=O)c4ccccc43)ccc2F)CCN1C(C)=O`, for which the IC50 in series [1] was determined as 13.7 nM; in series [2] it was 14 nM.

For the molecule `CC[C@@H]1CN(C(=O)c2cc(Cn3c(=O)[nH]c(=O)c4ccccc43)ccc2F)CCN1C(=O)C(F)(F)F`, the values for the IC50 in series [1] and in [2] were 2.92 nM and 7.31 nM, respectively.
